In US20230114728A1 (Venatorx Pharmaceuticals, Inc., priority 2019, published 2023):

Experiments:
[1] = target: T1, E. coli K12 PBP1b (Escherichia coli, UniProt P02919); experiment: Radioligand competition binding assay with 14C-labeled boronic acid probe, E. coli PBP1b; settings: PBP1a/PBP1b at 0.1 μM, Compound A at 20 μM; E. coli PBP1b; read-out: EC50 (the concentration of inhibitor required to reduce binding of Compound A by 50%)
T1 construct: made in house
Excerpt: (§1) Example II: Experimental Method to Assess Binding to Penicillin-Binding Proteins: Radioligand Competition Binding Assay
(§2) To determine the ability of boronic acid-based test PBP inhibitors to bind Penicillin Binding Proteins (PBPs), a radio-labelled boronic acid PBP inhibitor:
was used in competition binding assays to determine boronic acid PBP inhibitor binding to PBP1a or PBP1b from Escherichia coli. PBP1a and PBP1b were purified as described previously (Bertsche, U.; et al., J Biol. Chem. 2005, 280 (45), 38096-38101; Born, P.; et al., J Biol. Chem. 2006. 281 (37), 26985-26993). To establish assay conditions for competition binding, an enzyme titration/saturation binding experiment was performed. Saturation binding was performed in a buffer comprised of 20 mM Tris (pH 7.5), 500 mM NaCl and 0.1% (v/v) TritonX-100, with PBP1a/PBP1b at a final concentration of 0.1 μM and Compound A at final concentrations ranging from 0-100 μM. Mixtures were incubated for 60 minutes, then applied to Zeba Spin Desalting columns or plates (ThermoFisher Scientific) and centrifuged at 1000-1500×g for 2 minutes. The flow through, containing PBP bound with Compound A, was recovered and 100 μL mixed with 5 mL of UltimaGold liquid scintillation cocktail (Perkin Elmer), and the radioactivity counted using a Beckman Coulter LS 6500 Multipurpose scintillation counter. PBP binding of Compound A approached saturation at 20 μM of ^14C-labeled probe. The competition binding assay was validated using the beta-lactam ampicillin, with Compound A at a final concentration of 20 μM, PBP1a/PBP1b at a final concentration of 0.1 μM. PBP1a/PBP1b was incubated with ampicillin in a 96-well microplate for 60 minutes, then Compound A was added and the mixtures incubated for an additional 60 minutes. The mixtures were then applied to Zeba Spin desalting plates and centrifuged at 1000×g for 2 minutes. The flow through was recovered and 100 μl mixed with 5 ml of UltimaGold liquid scintillation cocktail and the radioactivity counted. […] Binding assays with boronic acid PBP inhibitors were performed in an identical fashion. […]

[2] = target: T2, E. coli K12 PBP1a (Escherichia coli, UniProt P02918); experiment: Radioligand competition binding assay with 14C-labeled boronic acid probe, E. coli PBP1a; settings: PBP1a/PBP1b at 0.1 μM, Compound A at 20 μM, read-out: EC50 (the concentration of inhibitor required to reduce binding of Compound A by 50%)
T2 construct: made in house
Excerpt: as §1, §2
was used in competition binding assays to determine boronic acid PBP inhibitor binding to PBP1a or PBP1b from Escherichia coli. PBP1a and PBP1b were purified as described previously (Bertsche, U.; et al., J Biol. Chem. 2005, 280 (45), 38096-38101; Born, P.; et al., J Biol. Chem. 2006. 281 (37), 26985-26993). To establish assay conditions for competition binding, an enzyme titration/saturation binding experiment was performed. Saturation binding was performed in a buffer comprised of 20 mM Tris (pH 7.5), 500 mM NaCl and 0.1% (v/v) TritonX-100, with PBP1a/PBP1b at a final concentration of 0.1 μM and Compound A at final concentrations ranging from 0-100 μM. […] The flow through, containing PBP bound with Compound A, was recovered and 100 μL mixed with 5 mL of UltimaGold liquid scintillation cocktail (Perkin Elmer), and the radioactivity counted using a Beckman Coulter LS 6500 Multipurpose scintillation counter. […] The flow through was recovered and 100 μl mixed with 5 ml of UltimaGold liquid scintillation cocktail and the radioactivity counted. […]

T2 sequence (P02918 whole entry): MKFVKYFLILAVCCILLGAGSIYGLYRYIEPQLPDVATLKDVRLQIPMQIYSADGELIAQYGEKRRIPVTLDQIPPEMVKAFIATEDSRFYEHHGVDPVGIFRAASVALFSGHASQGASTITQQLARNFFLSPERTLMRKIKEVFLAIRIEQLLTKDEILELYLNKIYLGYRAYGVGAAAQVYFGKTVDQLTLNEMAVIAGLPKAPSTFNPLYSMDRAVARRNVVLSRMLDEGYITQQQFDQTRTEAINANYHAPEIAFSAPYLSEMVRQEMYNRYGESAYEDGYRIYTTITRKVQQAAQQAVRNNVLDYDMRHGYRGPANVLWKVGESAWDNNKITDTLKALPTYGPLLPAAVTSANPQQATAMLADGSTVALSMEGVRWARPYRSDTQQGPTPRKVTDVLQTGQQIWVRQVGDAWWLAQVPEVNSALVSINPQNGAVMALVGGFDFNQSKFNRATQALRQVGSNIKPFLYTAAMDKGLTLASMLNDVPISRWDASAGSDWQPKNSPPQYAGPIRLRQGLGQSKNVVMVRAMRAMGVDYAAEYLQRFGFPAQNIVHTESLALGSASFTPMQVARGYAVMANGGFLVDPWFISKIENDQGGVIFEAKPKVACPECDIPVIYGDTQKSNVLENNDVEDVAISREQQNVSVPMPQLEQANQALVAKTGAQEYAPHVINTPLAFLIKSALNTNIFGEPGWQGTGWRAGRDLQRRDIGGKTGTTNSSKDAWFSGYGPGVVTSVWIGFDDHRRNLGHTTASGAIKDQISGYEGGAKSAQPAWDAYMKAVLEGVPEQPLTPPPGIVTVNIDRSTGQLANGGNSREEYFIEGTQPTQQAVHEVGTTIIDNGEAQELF
T1 sequence (P02919 whole entry): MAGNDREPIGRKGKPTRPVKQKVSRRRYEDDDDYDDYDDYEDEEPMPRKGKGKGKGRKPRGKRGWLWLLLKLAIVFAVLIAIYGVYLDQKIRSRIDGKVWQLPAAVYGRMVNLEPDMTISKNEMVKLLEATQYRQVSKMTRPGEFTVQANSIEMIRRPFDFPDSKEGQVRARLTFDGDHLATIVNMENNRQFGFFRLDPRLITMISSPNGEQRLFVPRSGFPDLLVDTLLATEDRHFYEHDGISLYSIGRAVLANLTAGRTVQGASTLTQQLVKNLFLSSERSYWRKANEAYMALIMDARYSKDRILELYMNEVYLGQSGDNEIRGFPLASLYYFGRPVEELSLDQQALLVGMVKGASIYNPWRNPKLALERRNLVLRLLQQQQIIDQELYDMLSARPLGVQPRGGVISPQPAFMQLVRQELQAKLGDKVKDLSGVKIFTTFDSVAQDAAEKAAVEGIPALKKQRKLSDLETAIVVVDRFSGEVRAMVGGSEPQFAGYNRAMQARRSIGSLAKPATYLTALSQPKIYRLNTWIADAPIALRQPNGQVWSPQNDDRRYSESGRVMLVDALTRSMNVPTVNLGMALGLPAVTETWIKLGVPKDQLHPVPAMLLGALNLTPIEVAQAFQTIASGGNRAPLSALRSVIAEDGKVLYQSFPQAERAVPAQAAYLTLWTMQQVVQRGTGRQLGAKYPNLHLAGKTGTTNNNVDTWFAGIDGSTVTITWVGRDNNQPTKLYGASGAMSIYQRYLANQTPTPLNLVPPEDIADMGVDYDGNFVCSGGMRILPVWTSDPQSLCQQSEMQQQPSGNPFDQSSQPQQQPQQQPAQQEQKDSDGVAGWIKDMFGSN

CC1(C)S[C@@H]2[C@H](NC(=O)[C@H](N)c3ccccc3)C(=O)N2[C@H]1C(=O)O [ampicillin, reference compound]
EC50 [1]: < 500 nM
EC50 [2]: < 500 nM
